This is an account of results in patent US8921308B2, “Antimicrobial peptide, branched forms thereof and their use in the treatment of bacteria infections” (priority 2010, dated 2014).

≈ marks a conversion by molar mass, not a printed value. Like-named read-outs stand apart in the source and are kept apart here.

The test system of series [1] is Acinotebacter baumannii RUH 134. The series is classed as cell-based. The settings on record: 24 h. As for the experimental part:
(§1) Peptide MICs were determined against strains of several bacterial species, including Gram-negative and Gram-positive pathogens (Table 1 and 2). Activity of tetra-branched D-M33 was retained against MDR strains with various resistance mechanisms (such as extended-spectrum beta-lactamases and carbapenemases), including MDR P. aeruginosa strains from CF patients. The antimicrobial activity of tetra-branched D-M33 appeared slightly better with respect to tetra-branched L-M33 for MDR strains of Pseudomonas and one strain of Klebsiella and sensitively better respect to tetra-branched L-M33 for the two strains of Staphyloccoccus aureus reported in Table 1.

Series [2] relates to Acinotebacter baumannii RUH 875. The series is classed as cell-based. The settings on record: 24 h. As for the experimental part: as §1
The next series deals with E. coli ATCC 25922. In kind it is cell-based. The settings on record: ATCC 25922, 24 h. As for the experimental part:
as §1

The subject of series [3] is Klebsiella pneumoniae ATCC 13833. In kind it is cell-based. The settings on record: ATCC 13833, 24 h. The protocol:
as §1

The next series relates to P. aeruginosa PAO-1. In kind it is cell-based. The settings on record: PAO-1, 24 h. The protocol: as §1
The subject of series [4] is P. aeruginosa VenM rugosa 05/04/2005. The series is classed as cell-based. The following applies: VenM rugosa 05/04/2005, 24 h. As for the experimental part:
as §1

The next series has as its system E. faecalis ATCC 29212. The settings on record: ATCC 29212, 24 h. As for the experimental part: (§2) Minimum Inhibitory Concentration (MIC) was determined by a standard microdilution assay as recommended by the National Committee for Clinical Laboratory Standards (NCCLS) using cation-supplemented Mueller-Hinton (MH) broth (Oxoid Ltd. Basingstoke, UK) and a bacterial inoculum of 5×10^4 CFU per well, in a final volume of 100 μl. Results were recorded by visual inspection after 24 h of incubation at 37° C.

The subject of the next series is E. faecalis FI74B4 VSE. The following applies: 24 h. The protocol:
as §2

In another series the test system is E. faecium FI81B1 VRE. The settings on record: 24 h. As for the experimental part: as §2
For another series, the system named is E. faecium FI81B2 VSE. The settings on record: 24 h. The protocol:
as §2

For a further series, the system named is S. agalactiae ATCC 13813. The following applies: ATCC 13813, 24 h. The protocol: as §2
The next series concerns S. aureus ATCC 29213. The settings on record: ATCC 29213, 24 h. The protocol: as §2
In the next series the test system is S. epidermidis 4761/1. The following applies: 4761/1, 24 h. The protocol:
as §2

The next series deals with S. epidermidis 6154. The settings on record: 6154, 24 h. The protocol: as §2
The next series has as its system S. pneumoniae 47C12. The following applies: 47C12, 24 h. As for the experimental part:
as §2

The next series has as its system S. pneumoniae 47D22. The settings on record: 47D22, 24 h. The protocol: as §2
Another series relates to S. pneumoniae ATCC 49619. The settings on record: ATCC 49619, 24 h. The protocol: as §2
The test system of series [5] is Staphylococcus aureus 3851. The following applies: 3851, 24 h. The protocol:
as §2

For the next series, the system named is S. capitis ATCC 27840. Nature of the series: MIC, microdilution assay. The settings on record: S. capitis ATCC 27840, reference strain. In kind it is cell-based. As for the experimental part: as §2
Series [6] relates to S. epidermidis ATCC 14990. Nature of the series: MIC, microdilution assay. The settings on record: S. epidermidis ATCC 14990, reference strain. The series is classed as cell-based. The protocol:
as §2
In general terms: In broth dilution the organism is exposed to a series of concentrations in liquid medium.

Another series has as its system human erythrocytes. Description: Haemolysis of human erythrocytes (method of Parpart). The series is classed as cell-based. The following applies: for haemolytic activity (percentage of haemolysis): red cells of human. As for the experimental part:
Effect of tetra-branched L-M33, D-M33 and monomeric Indolicidin on haemolysis of human erythrocytes. The figures show the haemolytic activity of the three peptides on human erythrocytes evaluated by means of erythrocyte osmotic resistance of Parpart method in NaCl. The percentage of haemolysis is calculated by means of a calibration curve obtained by incubating erythrocytes with increasing concentrations of NaCl. […] The percentage of haemolysis of untreated blood after 19 hours (control) is very limited (<1%).
Haemolysis of fresh human erythrocytes was determined using the method of Parpart, summarized as follows. A calibration curve was constructed by suspending fresh human erythrocytes in phosphate buffer (pH 7.4, 110 mM sodium phosphate) with various concentrations of NaCl and incubated for 30 min at room temperature. Samples were centrifuged at 500×g for 5 minutes, and haemoglobin release was monitored by measuring the absorbance of supernatants at 540 nm. The absorbance obtained with 0.1% NaCl corresponded to 100% lysis and that with 1% NaCl, to 0% lysis. Peptides dissolved in PBS were added to human erythrocyte solution at several concentrations. The resulting suspension was incubated separately at 37° C. for 2 h and 24 h. Release of hemoglobin was monitored by measuring the absorbance of the suspernatant at 540 nm after centrifuging and haemolysis percentage was calculated using the calibration curve.

The subject of a further series is E. coli TG1. Description: In vivo antibacterial activity, lethal E. coli infection in mice. The following applies: Balb-c mice, LD100 E. coli ip; single dose 10 mg/Kg ip 1 hour later. As for the experimental part: In vivo antibacterial activity of tetra-branched D-M33 peptide. Balb-c mice (20 g) were intra-peritoneally injected with a lethal amount of E. coli TG1 cells (1×10^9 CFU). Continuous line (Ctr) indicates mice only injected ip with bacteria and no D-M33. Broken line indicates mice injected ip with bacteria and a single injection of D-M33 peptide 10 mg/Kg 1 hour later.
(§3) Tetra-branched D-M33 peptide was analysed for its antibacterial activity in mice infected with lethal amounts of the Gram-negative bacterium E. coli or the Gram-positive bacterium S. aureus.
(§4) Balb-c mice were infected with the LD100 of bacteria and treated 1 hour later with the peptide by ip administration.

For a further series, the system named is S. aureus USA 300. Description: In vivo antibacterial activity, lethal S. aureus infection in mice. The settings on record: Balb-c mice, LD100 S. aureus ip; single dose 25 mg/Kg ip 1 hour later. The protocol:
In vivo antibacterial activity of tetra-branched D-M33 peptide. Balb-c mice (20 g) were intra-peritoneally injected with a lethal amount of S. aureus USA 300 cells (5×10^6 CFU) mixed in a 7% mucin solution. Control line (Ctr) indicates mice only injected ip with bacteria and no D-M33. D-M33 line indicates mice injected ip with bacteria and a single injection of D-M33 peptide 25 mg/Kg 1 hour later. P<0.05.
as §3, §4

The test system of the next series is C. glabrata ATCC 90030. The following applies: ATCC 90030, 24 h.
In series [7] the test system is C. parapsilosis ATCC 90018. The settings on record: ATCC 90018, 24 h.
The subject of a further series is C. albicans 9833. The settings on record: 9833, 24 h.
Another series deals with C. tropicalis 6597. The following applies: 6597, 24 h.
For another series, the system named is C. krusei ATCC 6268. The settings on record: ATCC 6268, 24 h.
For series [8] the following is noted: animals treated ip, peptide dose 100 mg/Kg.
The target in a further series is Aureolysin (Staphylococcus aureus, UniProt P81177). In kind it is in vitro ADME. The settings on record: incubation with S. aureus Aureolysin, 1 hour / 24 hours. The protocol: HPLC profiles of tetra-branched peptides L-M33 (A) and D-M33 (B) after incubation with the protease Aureolysin derived from S. aureus.
Sequence of Aureolysin (P81177 209-509): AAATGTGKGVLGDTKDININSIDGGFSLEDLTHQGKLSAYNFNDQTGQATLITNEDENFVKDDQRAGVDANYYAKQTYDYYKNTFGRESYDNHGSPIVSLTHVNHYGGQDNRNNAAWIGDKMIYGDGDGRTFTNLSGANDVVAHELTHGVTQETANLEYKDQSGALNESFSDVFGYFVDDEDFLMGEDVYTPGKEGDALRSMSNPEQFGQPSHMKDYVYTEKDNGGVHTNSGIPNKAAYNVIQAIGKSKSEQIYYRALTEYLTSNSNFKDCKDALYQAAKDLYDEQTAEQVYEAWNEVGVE

Take `CC[C@@H](C)[C@@H](NC(=O)[C@@H](CCCCN)NC(=O)[C@H](N)CCCCN)C(=O)N[C@H](CCCNC(=N)N)C(=O)N[C@@H](C(=O)N[C@H](CCCNC(=N)N)C(=O)N[C@H](CC(C)C)C(=O)N[C@H](CO)C(=O)N[C@H](C)C(=O)NCCCCC(NC(=O)[C@@H](C)NC(=O)[C@@H](CO)NC(=O)[C@@H](CC(C)C)NC(=O)[C@@H](CCCNC(=N)N)NC(=O)[C@H](NC(=O)[C@@H](CCCNC(=N)N)NC(=O)[C@H](NC(=O)[C@@H](CCCCN)NC(=O)[C@H](N)CCCCN)[C@H](C)CC)C(C)C)C(=O)NCCCCC(NC(=O)C(CCCCNC(=O)[C@@H](C)NC(=O)[C@@H](CO)NC(=O)[C@@H](CC(C)C)NC(=O)[C@@H](CCCNC(=N)N)NC(=O)[C@H](NC(=O)[C@@H](CCCNC(=N)N)NC(=O)[C@H](NC(=O)[C@@H](CCCCN)NC(=O)[C@H](N)CCCCN)[C@H](C)CC)C(C)C)NC(=O)[C@@H](C)NC(=O)[C@@H](CO)NC(=O)[C@@H](CC(C)C)NC(=O)[C@@H](CCCNC(=N)N)NC(=O)[C@H](NC(=O)[C@@H](CCCNC(=N)N)NC(=O)[C@H](NC(=O)[C@@H](CCCCN)NC(=O)[C@H](N)CCCCN)[C@H](C)CC)C(C)C)C(=O)NCCC(=O)O)C(C)C` (stereo partly drawn) [D-M33, KKIRVRLSA]: the MIC in [1] came to 3 µM (≈ 14 µg/mL); in series [2] it was 3 µM (≈ 14 µg/mL); against E. coli ATCC 25922, 1.5 µM (≈ 7.02 µg/mL); in series [3] it was 0.7 µM (≈ 3.28 µg/mL); in the series on P. aeruginosa PAO-1, 0.7 µM (≈ 3.28 µg/mL); in [4] it was 0.7 µM (≈ 3.28 µg/mL). For the same molecule, the MIC in the series on E. faecalis ATCC 29212 amounted to 0.7 µM (≈ 3.28 µg/mL); with E. faecalis FI74B4 VSE it was 0.7 µM (≈ 3.28 µg/mL); with E. faecium FI81B1 VRE it was 0.7 µM (≈ 3.28 µg/mL); in the series with E. faecium FI81B2 VSE, 0.7 µM (≈ 3.28 µg/mL); with S. agalactiae ATCC 13813, 1.5 µM (≈ 7.02 µg/mL); against S. aureus ATCC 29213 it was 3 µM (≈ 14 µg/mL). For the same molecule, the MIC against S. epidermidis 4761/1 is 0.35 µM (≈ 1.64 µg/mL); in the series with S. epidermidis 6154, 0.35 µM (≈ 1.64 µg/mL); in the series with S. pneumoniae 47C12 it was 12 µM (≈ 56.2 µg/mL); against S. pneumoniae 47D22 it was 6 µM (≈ 28.1 µg/mL); with S. pneumoniae ATCC 49619, 6 µM (≈ 28.1 µg/mL); in series [5], 0.7 µM (≈ 3.28 µg/mL). Besides, the MIC in the series on S. capitis ATCC 27840 came to 0.35 µM (≈ 1.64 µg/mL); in series [6], 0.35 µM (≈ 1.64 µg/mL); with C. glabrata ATCC 90030, 12 µM (≈ 56.2 µg/mL); in series [7], 1.5 µM (≈ 7.02 µg/mL); against C. albicans 9833 it was 24 µM (≈ 112 µg/mL); in the series with C. tropicalis 6597, 12 µM (≈ 56.2 µg/mL). Moreover, the MIC in the series on C. krusei ATCC 6268 was determined as 6 µM (≈ 28.1 µg/mL). Besides, the “haemolysis, result in words” value in the series with human erythrocytes was “negligible haemolysis grade”. Moreover, the “haemolytic activity (percentage of haemolysis)” value with human erythrocytes is given as less than 5%. The “animals protected from signs of sepsis and death (seven-day survival)” value in the series on E. coli TG1 and with S. aureus USA 300 was 100% in each case. The apparent toxicity signs entry in series [8] was “did not produce apparent toxicity signs”.
On to `CC[C@H](C)[C@H](NC(=O)[C@H](CCCCN)NC(=O)[C@@H](N)CCCCN)C(=O)N[C@@H](CCCNC(=N)N)C(=O)N[C@H](C(=O)N[C@@H](CCCNC(=N)N)C(=O)N[C@@H](CC(C)C)C(=O)N[C@@H](CO)C(=O)N[C@@H](C)C(=O)NCCCC[C@H](NC(=O)[C@H](C)NC(=O)[C@H](CO)NC(=O)[C@H](CC(C)C)NC(=O)[C@H](CCCNC(=N)N)NC(=O)[C@@H](NC(=O)[C@H](CCCNC(=N)N)NC(=O)[C@@H](NC(=O)[C@H](CCCCN)NC(=O)[C@@H](N)CCCCN)[C@@H](C)CC)C(C)C)C(=O)NCCCC[C@H](NC(=O)[C@H](CCCCNC(=O)[C@H](C)NC(=O)[C@H](CO)NC(=O)[C@H](CC(C)C)NC(=O)[C@H](CCCNC(=N)N)NC(=O)[C@@H](NC(=O)[C@H](CCCNC(=N)N)NC(=O)[C@@H](NC(=O)[C@H](CCCCN)NC(=O)[C@@H](N)CCCCN)[C@@H](C)CC)C(C)C)NC(=O)[C@H](C)NC(=O)[C@H](CO)NC(=O)[C@H](CC(C)C)NC(=O)[C@H](CCCNC(=N)N)NC(=O)[C@@H](NC(=O)[C@H](CCCNC(=N)N)NC(=O)[C@@H](NC(=O)[C@H](CCCCN)NC(=O)[C@@H](N)CCCCN)[C@@H](C)CC)C(C)C)C(=O)NCCC(=O)O)C(C)C` [L-M33, KKIRVIRLSA, reference compound], for which the MIC in [1] is 1.5 µM (≈ 7.02 µg/mL); in [2], 1.5 µM (≈ 7.02 µg/mL); against E. coli ATCC 25922, 1.5 µM (≈ 7.02 µg/mL); in [3], 1.5 µM (≈ 7.02 µg/mL); with P. aeruginosa PAO-1, 1.5 µM (≈ 7.02 µg/mL); in [4] it was 3 µM (≈ 14 µg/mL). In series [5], this molecule displayed an MIC of 6 µM (≈ 28.1 µg/mL). Further, in the series on human erythrocytes, the “haemolytic activity (percentage of haemolysis)” value was less than 5%. On Aureolysin, the “degradation by protease Aureolysin (HPLC profile)” value is recorded as “degraded after only 1 hour of incubation”.
For Indolicidin [reference compound], the “haemolysis, result in words” value with human erythrocytes (human erythrocytes (FIG. 2)) was “more haemolytic”.

One may read the MIC as the lowest concentration that inhibits growth of the organism. Read a low MIC as greater potency.
